Assay results taken from patent US20030203000A1, “Modulation of therapeutic agent release from a polymeric carrier using solvent-based techniques” (priority 2002, published 2003).

Assay: paclitaxel release profile from block-copolymer-coated stents in PBS with 0.5% Tween 20
Type: physicochemical
Conditions: release in PBS with 0.5% Tween 20, FIG. 1
Excerpt: A solution is provided that contains the following: 99 wt % solvent system, 0.25 wt % paclitaxel and 0.75 wt % block copolymer. The copolymer is synthesized using known techniques such as those described in U.S. Pat. No. 5,741,331, U.S. Pat. No. 4,946,899 and U.S. Ser. No. 09/734,639. The solvent system consists of tetrahydrofuran (THF) and toluene, which are provided in varying ratios in this example. The solution is provided by (1) mixing the paclitaxel and tetrahydrofuran, (2) adding the copolymer, (3) adding the toluene, (4) thoroughly mixing (e.g., overnight), and (5) filtering.
The solution is then placed in a syringe pump and fed to a spray nozzle. A stent is mounted onto a holding device parallel to the nozzle and, if desired, rotated to ensure uniform coverage. Depending on the spray equipment used, either the component or spray nozzle can be moved while spraying such that the nozzle moves along the component while spraying for one or more passes.
After a coating is formed in this fashion, it is dried, for example, by placing it in a preheated oven for 30 minutes at 65° C., followed by 3 hours at 70° C.
Three coated stents are formed in this manner using (in addition to 0.25 wt % paclitaxel and 0.75 wt % block copolymer) the following solvent species in the following relative amounts: (T) 99 wt % THF, (2) 75 wt % THF, 24 wt % toluene, (3) 50 wt % THF, 49 wt % toluene, (4) 25 wt % THF, 74 wt % toluene, (5) 5 wt % THF, 94 wt % toluene. Release rate as a function of time and cumulative release as a function of time (referred to herein as the “release profile”) were then measured in PBS with 0.5% Tweeng 20 (polyoxyethylene(20) sorbitan monolaurate) available from Sigma-Aldrich. The results are graphically illustrated in FIG. 1.

paclitaxel release (release profile) (coating formed from higher THF-to-toluene ratios in the solvent system): more accelerated paclitaxel release
paclitaxel release (release profile) (coating formed from lower THF-to-toluene ratios in the solvent system): more extended paclitaxel release
paclitaxel release (release rate and cumulative release as a function of time) (stent coating of 0.25 wt % paclitaxel and 0.75 wt % block copolymer, THF solvent system with toluene added): reduced by the addition of toluene
Compound: CC(=O)O[C@H]1C(=O)[C@@]2(C)[C@H]([C@H](OC(=O)c3ccccc3)[C@]3(O)C[C@H](OC(=O)[C@H](O)[C@@H](NC(=O)c4ccccc4)c4ccccc4)C(C)=C1C3(C)C)[C@]1(OC(C)=O)CO[C@@H]1C[C@@H]2O [paclitaxel]
